Laboratory results taken from patent EP1125931A1, “Biocidal alkyl-substituted-(hetero)aryl-ketoxime-O-ethers and the production method thereof” (Hunan Research Institute of Chemical Industry, priority 2000, dated 2001).
Where two headings read alike, the source gives them in different places.

Columns and labels:
Green peach aphid = test: Biological activity (LC50) against green peach aphid; type: in vivo
Spotted cutworm = test: Biological activity (LC50) against spotted cutworm; type: in vivo
American tobacco cutworm = test: Biological activity (LC50) against American tobacco cutworm; type: in vivo
Spinach army worm = test: Biological activity (LC50) against spinach army worm; type: in vivo
fungal pathogens = test: Test for antifungal activity (mycelial growth on PDA media); type: cell-based; settings: against one or more fungal pathogens; concentration 100 ppm; 72 hours of cultivation; read-out: growth inhibition rate
Experimental: Alkyl-substituted-(hetero)aryl-ketoxime-o-ether, ketone intermediate, or active oxime compound of this invention was diluted with an appropriate diluting agent (such as propanone) to prepare a parent solution having a certain concentration. One ml of this solution was taken with a pipette into 50 ml of molten PDA media. After shaking thoroughly, it was poured into two Petri dishes, to create duplicate. After cooling, a mycelial pad (diameter = about 4 mm) was taken and inoculated on the center of the culture dish. The diluting agent was used as the control. After inoculation, the dish was kept in an incubator set at an appropriate temperature. After 72 hours of cultivation, length (diameter of the colony) of the growth of mycelia was measured, and fungal growth inhibition rate was calculated.

aphids Aphis fabae = test: Test for the biological activity against aphids (seedling dip); type: in vivo; settings: after 24 hours; for lethal rate: at a lower concentration (than 250 ppm); for aphids killed: concentration 250 ppm (content of effective component), average of 3 tests
Experimental: Emulsion oil or wettable powder of the alkyl-substituted-(heteroaryl-ketoxime-o-ether, ketone intermediate or active oxime compound of this invention prepared by the method described in the Example for preparing a controlling agent in agriculture was diluted with water to prepare a solution of agricultural chemical having a certain concentration. Aphids were inoculated in the new seedlings (more than 15). Then, the seedlings, together with the aphids, were dipped in the solution of agricultural agent for 5 seconds, removed, and excess liquid was drained. They were placed in a water-absorbing sponge, and held by glass rods. After 24 hours, the number of live and dead aphids was examined. Test was run 3 times, and the results were averaged. With a series of compound (I) [Code No. 5, 8, 21, 22, 23, 30, 33, 46, 47, 48], the aphids were killed 100% when the concentration was 250 ppm (calculated as the content of effective component). Some compounds (I) [Code No. 5, 8, and 30 in Table 1] gave 100% lethal rate with the aphids, even at a lower concentration.

[1] = test system: leafhopper Nephotetlix cimeticeps; test: Test for the biological activity against leafhopper (rice seedling dip); type: in vivo; settings: after 24 hours; for kill rate: at a lower concentration (than 250 ppm); for leafhoppers killed: concentration 250 ppm (content of effective component), average of 3 tests
Experimental: Emulsion oil or wettable powder of the alkyl-substituted-(hetero)aryl-ketoxime-o-ether, ketone intermediate, or active oxime compound of this invention prepared by the method described in the Example for preparing a controlling agent in agriculture was diluted with water to prepare a solution of agricultural chemical having a certain concentration. Rice seedlings (second semester) were dipped in the solution of agricultural agent for 5 seconds, and then removed. It was drained and then placed in a large test tube. Each test tube contained 20 seedlings. Then, 20 leafhoppers (5th instar) were introduced in the tube, and the mouth of the tube was covered with a white cheesecloth. The tube was kept at room temperature, and number of live and dead leafhoppers was examined after 24 hours. Test was run 3 times, and results were averaged.

Mythimne separata = test: Test for the biological activity against Mythimne separata (spray, Petri dish with corn fragments); type: in vivo; settings: after 24 hours
Experimental: Emulsion oil or wettable powder of the alkyl-substituted-(hetero)aryl-ketoxime-o-ether, intermediate ketone, or the active oxime compound of this invention prepared by the procedure described in the Examples for preparing a controlling agent in agriculture described above was diluted with water to prepare a solution of agricultural chemical having a certain concentration.
Ten heads of Mythimne separata and 5 pieces of corn fragments were placed in a Petri dish, and it was sprayed with a certain amount of agricultural chemical solution. After the exposure, it was kept in a room for normal cultivation. After 24 hours, number of live and dead insects were counted. Test was run 3 times, and results were averaged. […] Some compounds (I) [such as Code No. 5, 8, and 30] shown in Table 1] gave 100% lethal rate even when the concentration was lower than 500 ppm.

[2] = concentration 500 ppm (content of effective component), average of 3 tests
[3] = concentration lower than 500 ppm

With `CSC(C)C(=NOCc1cccc(Oc2ccccc2)c1)c1ccc(Cl)cc1` (stereo not shown) [Code No. 30 Z-form, 1-(4-chlorophenyl)-2-methylthio-O-((3-phenoxyphenyl)methyl) 1-propanone oxime] the LC50 (Green peach aphid; listed as 30 Z-form) was “LC50 (ppm) > 150”, the LC50 (Spotted cutworm; listed as 30 Z-form) was “LC50 (ppm) > 150” and the LC50 (American tobacco cutworm; listed as 30 Z-form) was “LC50 (ppm) > 150”. The LC50 (Spinach army worm; listed as 30 Z-form) was “LC50 (ppm) > 150”.

`CSCC(=NO)c1ccc(Cl)cc1` [compound (III) Code No. 5, 1-(4-chlorophenyl)-2-methylthio ethanone oxime] was tested, and the inhibition at 100 ppm (fungal pathogens) was > 90%.

`CSCC(=NOCc1cccc(Oc2ccccc2)c1)c1ccc(Cl)cc1` [Code No. 5] was tested, and the lethal rate (aphids Aphis fabae) was 100%, the aphids killed (aphids Aphis fabae) was 100% and the kill rate [1] was 100%. The leafhoppers killed [1] was 100%, the lethal rate (Mythimne separata; [2]) was “exceeding 100%” and the lethal rate (Mythimne separata; [3]) was 100%.

For `CSCC(=NOCc1cccc(Oc2ccccc2)c1)c1ccc(Cl)cc1` [Code No. 5 E-form], the LC50 (Green peach aphid) was “LC50 (ppm) > 100”, the LC50 (Spotted cutworm) was “LC50 (ppm) < 5” and the LC50 (American tobacco cutworm) was “LC50 (ppm) < 10”. The LC50 (Spinach army worm) was “LC50 (ppm) < 5”.

With `CSC(C)C(=NOCc1cccc(Oc2ccccc2)c1)c1ccc(Cl)cc1` (stereo not shown) [Code No. 30, 1-(4-chlorophenyl)-2-methylthio-O-((3-phenoxyphenyl)methyl) 1-propanone oxime] the lethal rate (aphids Aphis fabae) was 100%, the aphids killed (aphids Aphis fabae) was 100% and the kill rate [1] was 100%. The leafhoppers killed [1] was 100%, the lethal rate (Mythimne separata; [2]) was “exceeding 100%” and the lethal rate (Mythimne separata; [3]) was 100%.

In the case of `CSC(C)C(=NOCc1cccc(Oc2ccccc2)c1)c1ccc(Cl)cc1` (stereo not shown) [Code No. 30 E-form, 1-(4-chlorophenyl)-2-methylthio-O-((3-phenoxyphenyl)methyl) 1-propanone oxime], the LC50 (Green peach aphid; listed as 30 E-form) is reported as “LC50 (ppm) < 15”, the LC50 (Spotted cutworm; listed as 30 E-form) is reported as “LC50 (ppm) < 1.5” and the LC50 (American tobacco cutworm; listed as 30 E-form) is reported as “LC50 (ppm) < 5”. The LC50 (Spinach army worm; listed as 30 E-form) was “LC50 (ppm) < 5”.
